Results taken from patent US20050215562A1, “Methods for treating protein aggregation disorders” (priority 2003, published 2005).

Experiments:
NAC peptide [1] = biological target: T1, NAC peptide (Homo sapiens, UniProt P37840); assay: Electron microscopy (EM) analysis of NAC fiber formation in the fibrillogenesis assay; format: biochemical
T1 construct: a 35 amino acid peptide corresponding to residues 61 to 95 of the α-synuclein protein; made in house; host or cells: chemical solid-phase peptide synthesis (Fmoc), not expressed
Protocol: (§1) Fibrillogenesis assays were employed to identify test compounds that inhibit NAC's ability to assemble into fibers. Following removal of HFIP by evaporation under N2 gas, 20 μM NAC peptide is incubated in the assay buffer (0.02M Tris, 0.15 M NaCl, 0.005% NaN3, 100 uM EDTA) at 37° C. in a Perkin-Elmer HTS 7000 plus microplate reader with shaking for 1 minute every twenty minutes. The presence of fibers can be monitored by three different methods.
(§2) The following assays were set up in clear polystyrene 96 well microplates by combining 125 μL of 40 μM NAC peptide with 125 μL of 200 μM test compound in 0.02M Tris, 0.15 M NaCl, 0.005% NaN3, […]. The microplates were sealed with a plastic sheet and incubated at 37° C. in a Perkin-Elmer HTS 7000 microplate reader with shaking for 1 minute, every 20 minutes. • Thioflavin T Analysis. To perform this assay 5 μM Thioflavin T is added to the NAC assembly conditions described above. The fluorescence is measured at 430 excitation/485 emission every twenty minutes with a Perkin-Elmer HTS microplate reader for the duration of the assay. […] This assay allows for the identification of compounds that can inhibit this increase in fluorescence upon incubation. • Turbidity Analysis. Alternatively, NAC peptide that has been incubated with test compounds in the appropriate assembly conditions can be analyzed by reading the absorbance at 405 nm to follow the turbidity of the solution which is also an indication of the formation of aggregates. • Circular Dichroism (CD) Analysis. […] This assay allows for the identification of compounds that can prevent NAC from adopting a β-sheet/β-turn conformation upon incubation. • At the appropriate time point, during the incubation, the test solutions were transferred to 0.1-cm path length quartz cuvettes and scanned by CD spectroscopy between 190 and 260 nm, with a resolution of 0.1 nm and a bandwidth of 1 nm using a Jasco J-715 spectropolarimeter at 37° C. […] At the time point at which CD scans are performed a 3 μl aliquot is removed from the sample, spotted onto a Formvar grid and then negatively stained with 4% uranyl acetate. The grids were examined for the presence of fibrils and amorphous aggregates using a JOEL 2000 transmission electron microscope at a 25,000 × magnification. This assay can be used to confirm the absence of fibers in the presence of compounds which inhibit NAC assembly by ThT and CD. The final results were obtained by averaging 10 complete sectors.
Analysis by Electron Microscopy: The fibrillogenesis assays performed for CD analysis were also spotted for EM. The electron micrographs are visually examined and a score is assigned as follows. Briefly, 10 representative frames from a 300-mesh grid are analyzed and given a score representing the amount of fibers formed in the sample as compared to a micrograph with NAC alone without a test compound (100% fibers). A score was assigned based on this analysis on a scale from 0% to 100% fibers: (−) indicates an observation of less than about 25% fibers; (+) indicates about 25% fibers; (++) about 50% fibers; (+++) indicates about 75% fibers; and (++++) 100% fibers. […]

NAC peptide [2] = biological target: T1, NAC peptide; assay: Circular dichroism (CD) analysis of NAC peptide conformation after incubation with test compounds (fibrillogenesis assay); format: biochemical; conditions: NAC incubated in presence of heparin; minimum at 218 nm typical of β-sheet
Protocol: 2 mM Solutions were prepared in TBSA buffer (Tris 0.02 M, NaCl 0.15 M, NaN3 0.005%, pH 7.4) and stored at 4° C. For the assays, compounds were diluted to the desired concentrations in TBSAE buffer (Tris 0.02 M, NaCl 0.15 M, NaN3 0.005%, EDTA 100 μM, pH 7.4) and combined with the NAC peptides.
as §1, §2
For compounds that have been tested multiple times, a compound is classified as active if it prevents the transition to β-turn/β-sheet in 50% or more of the trials.

| Compound | Activity (EM) (NAC peptide [1]) | EM Score (NAC peptide [1]; amount of fibers compared to NAC alone (100% fibers), 10 frames of a 300-mesh grid) | Effect on NAC conformation by CD (NAC peptide [2]) | Appearance of NAC fibers by EM (NAC peptide [1]; NAC in the presence of heparin) |
| --- | --- | --- | --- | --- |
| O=S(=O)(O)CC(O)CNC1CCCCC1 (stereo not shown) [drawing 64] | No | +++ ((+++) indicates about 75% fibers) | – | – |
| heparin [reference compound] | – | – | promotes a conformational change | longer and more interwined fibers |
